The values below come from the supplement of paper PMC11208160.

A short description of this series: recombinant barcode read abundance after kanamycin selection (control-corrected) (log10(CPM+1)); higher = more efficient recombination; sequences stand for … in AGTGCAGAGAAAATCGGCCAGTTTTCTCTGCCTGCAGTCCGCATGCCGT…AGATTTATGCAGCGGACTGCCTTTCTCCCAAAGTGATAAACCGGACAGTATCATGGACCGGTTTTCCCGGTAATCCGTATTTGCAAGGTTGGTTTCACT; site = the 11-nt target. The procedure, abridged:
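In a pooled screen in E. coli, targets were paired with target-binding loops of the IS621 bridge RNA. Each oligo carried a promoter, a target, a barcode and the first 104 bridge RNA bases driven by J23119, and was Gibson-cloned into a vector holding the remaining 73 bp and a T7-inducible recombinase before co-electroporation with a donor plasmid. Duplicate platings went onto chloramphenicol/ampicillin LB agar as the control or onto chloramphenicol/ampicillin/kanamycin with 0.1 mM IPTG. Recombination efficiency is the averaged, control-corrected count per million of barcodes at recombinant junctions, given as log10(CPM+1).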
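Also: IS621 recombinase and bridge RNA in Escherichia coli cells.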

On to “TTAGTGGCTTGGGTTCTAACCTGTTGCCT (site TTAGTAGCTAG)”, for which the “recombinant barcode read abundance (log10)” value came to 0.607.

Turning to “TTAGTGGCTTGGGTTCTAACCTGTTGCCT (site TTAGTCGCTAG)”, the “recombinant barcode read abundance (log10)” value amounted to 0.0499. Turning to “TTAGTGGCTTGGGTTCTAACCTGTTGCCT (site TTAGTGGCTAG)”, the “recombinant barcode read abundance (log10)” value came out at 0.978.

Consider “TTAGTGGCTTGGGTTCTAACCTGTTGCCT (site TTAGTTGCTAG)”, for which the “recombinant barcode read abundance (log10)” value is 0.0338. In the case of “TTATCCGCTTGGGTTCTAACCTGTTGCCT (site CGTAGACCTTA)”, the “recombinant barcode read abundance (log10)” value worked out at 0.0341.

Regarding “TTATCCGCTTGGGTTCTAACCTGTTGCCT (site TTATCCGCTAG)”, the “recombinant barcode read abundance (log10)” value was 1.77. As to “TTATCTCCTTGGGTTCTAACCTGTTGCTT (site TCGTCTCCTAA)”, the “recombinant barcode read abundance (log10)” value stood at 0.0381.

Turning to “TTATCTCCTTGGGTTCTAACCTGTTGCTT (site TTATCTCCTAA)”, the “recombinant barcode read abundance (log10)” value was found to be 0.205. As to “TTCAAAACTTGGGTTCTAACCTGTTGCCT (site TTCAAAACTAG)”, the “recombinant barcode read abundance (log10)” value came out at 0.103. The same measure for “TTCAAAACTTGGGTTCTAACCTGTTGCCT (site TTCAAACCTAG)”: 0.0651; for “TTCAAAACTTGGGTTCTAACCTGTTGCCT (site TTCAAAGCTAG)”: 0.0504; for “TTCAAAACTTGGGTTCTAACCTGTTGCCT (site TTCAAATCTAG)”: 0.0229.

“TTCAAAGCTTGGGTTCTAACCTGTTGCCT (site TTCAAAACTAG)”: the “recombinant barcode read abundance (log10)” value turned out to be 0.0225. Turning to “TTCAAAGCTTGGGTTCTAACCTGTTGCCT (site TTCAAACCTAG)”, the “recombinant barcode read abundance (log10)” value turned out to be 0.0449. With “TTCAAAGCTTGGGTTCTAACCTGTTGCCT (site TTCAAAGCTAG)”, the “recombinant barcode read abundance (log10)” value turned out to be 0.0407.

On to “TTCAAAGCTTGGGTTCTAACCTGTTGCCT (site TTCAAATCTAG)”, for which the “recombinant barcode read abundance (log10)” value turned out to be 0.0721. With “TTCACAGCTTGGGTTCTAACCTGTTGCCT (site TTCACACCTAG)”, the “recombinant barcode read abundance (log10)” value was 0.0537.

For “TTCACAGCTTGGGTTCTAACCTGTTGCCT (site TTCACAGCTAG)”, the “recombinant barcode read abundance (log10)” value was found to be 0.133. In the case of “TTCACGCCTTGGGTTCTAACCTGTTGCCT (site TTCACGCCTAG)”, the “recombinant barcode read abundance (log10)” value is 0.187. As for “TTCACGCCTTGGGTTCTAACCTGTTGCCT (site TTCCCGCCTAG)”, the “recombinant barcode read abundance (log10)” value came to 0.127. On to “TTCACGCCTTGGGTTCTAACCTGTTGCCT (site TTCGCGCCTAG)”, for which the “recombinant barcode read abundance (log10)” value amounted to 0.0353. The same measure for “TTCACGCCTTGGGTTCTAACCTGTTGCCT (site TTCTCGCCTAG)”: 0.214; for “TTCACGGCTTGGGTTCTAACCTGTTGCCT (site TTAACGGCTAG)”: 0.223.

As to “TTCACGGCTTGGGTTCTAACCTGTTGCCT (site TTCACGGCTAG)”, the “recombinant barcode read abundance (log10)” value is 0.0164.

As for “TTCCAATCTTGGGTTCTAACCTGTTGCCA (site TGCCAATCTAG)”, the “recombinant barcode read abundance (log10)” value came to 0.0654. The same measure for “TTCCAATCTTGGGTTCTAACCTGTTGCCA (site TTCCAATCTTG)”: 0.713. “TTCCCCACTTGGGTTCTAACCTGTTGCCT (site AATATAGCTTA)”: the “recombinant barcode read abundance (log10)” value worked out at 0.115. Consider “TTCCCCACTTGGGTTCTAACCTGTTGCCT (site TTCCCCACTAG)”, for which the “recombinant barcode read abundance (log10)” value stood at 1.11. With “TTCCCGCCTTGGGTTCTAACCTGTTGCCT (site TTCACGCCTAG)”, the “recombinant barcode read abundance (log10)” value amounted to 0.0618. Take “TTCCCGCCTTGGGTTCTAACCTGTTGCCT (site TTCCCGCCTAG)”: the “recombinant barcode read abundance (log10)” value was 0.543. The same measure for “TTCCCGCCTTGGGTTCTAACCTGTTGCCT (site TTCGCGCCTAG)”: 0.489; for “TTCCCGCCTTGGGTTCTAACCTGTTGCCT (site TTCTCGCCTAG)”: 0.155.
